Measured values from patent publication US12239729B2, “TRPV3 agonists for the treatment of skin conditions” (Soricimed Biopharma Inc., priority 2012, dated 2025).
Peptide text beside a SMILES is read from it.

Target: T1, TRPV3 channels expressed in HEK-293 cells (Homo sapiens, UniProt Q8NET8)
T1 construct: expressed in transfected cells; host or cells: HEK-293 cells, transient transfection
T1 sequence (Q8NET8 1-790): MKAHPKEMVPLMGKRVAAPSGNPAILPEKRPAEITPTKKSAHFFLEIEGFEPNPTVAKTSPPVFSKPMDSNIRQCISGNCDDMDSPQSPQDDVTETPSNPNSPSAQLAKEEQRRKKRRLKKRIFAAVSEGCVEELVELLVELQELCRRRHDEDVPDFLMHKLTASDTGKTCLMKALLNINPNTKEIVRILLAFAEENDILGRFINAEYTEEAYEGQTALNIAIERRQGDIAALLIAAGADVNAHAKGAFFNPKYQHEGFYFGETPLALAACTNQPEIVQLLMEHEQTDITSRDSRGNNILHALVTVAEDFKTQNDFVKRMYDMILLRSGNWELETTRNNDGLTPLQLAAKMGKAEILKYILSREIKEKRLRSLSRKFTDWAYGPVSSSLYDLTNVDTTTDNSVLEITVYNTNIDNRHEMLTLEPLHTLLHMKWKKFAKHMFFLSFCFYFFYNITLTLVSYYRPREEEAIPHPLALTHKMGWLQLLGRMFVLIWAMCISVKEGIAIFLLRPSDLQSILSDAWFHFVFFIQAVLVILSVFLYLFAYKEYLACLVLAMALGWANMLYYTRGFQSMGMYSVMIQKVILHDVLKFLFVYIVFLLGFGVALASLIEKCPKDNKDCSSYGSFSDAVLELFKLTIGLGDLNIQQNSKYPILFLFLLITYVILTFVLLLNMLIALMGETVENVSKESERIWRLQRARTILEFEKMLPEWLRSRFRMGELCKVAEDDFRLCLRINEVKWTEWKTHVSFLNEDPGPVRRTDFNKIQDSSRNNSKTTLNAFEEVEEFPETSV
Assay: Patch-clamp testing of TRPV3 channel activity in transfected HEK-293 cells
Format: cell-based
Description: SOR-C13, SOR-C27 and SOR-N54 were tested using a patch clamp screen to determine whether the peptide had any effect on the channel activity of TRPV3. Ruthenium red, a known antagonist of TRPV3 and 2-Aminoethoxydiphenyl Borate (2-APB) a known activator of TRPV3 were used as controls.
HEK 293 cells were maintained in ϕ30 mm cell culture plate in DMEM media supplemented with 10% fetal bovine serum and penicillin/streptomycin. Cells were grown in a humidified atmosphere of 95% air/5% CO2 at 37° C. in a cell culture incubator.
The cells from 70-90% confluence were prepared for transfection. For transient expression in HEK-293 cells 1 μg plasmid cDNA and pEGFP (in vivo reporter of gene expression) were used.
Recordings were performed at 20˜23° C. Currents were sampled using Digidata 1440A, amplified, and filtered at 2 kHz using Axopatch 200B, then acquired and analyzed using pClamp 10.0 (Molecular Devices, Sunny vales, CA, USA).
The pipette solution and bath solution contained 140 mM CsCl, 4 mM MgCl2, 10 mM EGTA, CsOH pH=7.3 and 130 mM NaCl, 5 mM KCl, 2 mM CaCl2), 1 mM MgCl2, 25 mM HEPES, 30 mM Glucose, pH=7.3, respectively.
Each peptide was diluted in the bath solution to the desired concentration (0.01 μM, 0.03 μM, 0.1 μM, 0.3 μM, 1 μM, 3 μM, or 10 μM), respectively.

CC(C)C[C@H](NC(=O)[C@H](Cc1ccccc1)NC(=O)[C@H](CCC(=O)O)NC(=O)[C@@H](N)CCCCN)C(=O)N[C@@H](Cc1cnc[nH]1)C(=O)N1CCC[C@H]1C(=O)N[C@@H](CO)C(=O)N[C@@H](CCCCN)C(=O)N[C@H](C(=O)N[C@@H](CC(=O)O)C(=O)N[C@@H](CC(C)C)C(=O)N1CCC[C@H]1C(=O)N[C@@H](CCCNC(=N)N)C(=O)O)C(C)C [SOR-C13, KEFLHPSKVDLPR] (H-KEFLHPSKVDLPR-OH)
EC50: 0.0217 µM
